Where two headings read alike, the source gives them in different places.
Assays:
[1] = Acute toxicity in mice after intraperitoneal and oral administration; conditions: mouse, in vivo, female albino Swiss mice, mortality recorded 7 days after administration
Protocol: Male Sprague Dawley rats [Crl: CD' BR] of 200-300 g b.w., female Albino Swiss mice [Crl: CD-1 (ICR) BR] 20-30 g b.w., and male Beagle dogs (10-12 kg b.w.) were obtained from Charles River, Italy and Nossan (Correzzana, Milan, Italy), respectively. Animals were housed with free access to food and water and maintained on forced light-dark cycle at 22-24°C until the day of experiments.
The acute toxicity of synthesized compounds was evaluated in female albino Swiss mice after intraperitoneal and oral administration. Four logarithmic scaled doses of the compounds were dissolved or suspended in 0.5% Methocel and administered in a volume of 10 ml/kg to groups of 4 mice/dose. Mortality was recorded 7 days after the administration. Data analysis: the LD₅₀ values and their fiducial limits were calculated according to the method of Weil (Biometrics, 8, 249, 1952).

α₁ receptors = test: [3H]prazosin binding (α1 receptors), rat cerebral cortex membranes; conditions: rat cerebral cortex crude membranes, [3H]prazosin 0.35 nM, 25°C 30 min; read-out: Receptor Binding IC50 (nM) α1
Protocol: Rat cerebral cortices were homogenized in 50 volumes of original wet weight of ice-cold 50 mM Tris-HCl buffer pH 7.4. The homogenates were centrifuged at 48,000 x g for 10 minutes, and the pellets were resuspended in the same volume of ice-cold buffer, centrifuged and resuspended two more times. The final pellets obtained were resuspended in the same volume of buffer and incubated according to the conditions reported in the table below.
The incubations were terminated after the appropriate time (see table) by rapid filtration through Whatman GF/B filters using a Brandel cell harvester. The filters were washed twice with 15 ml of ice-cold buffer (see table). The radioactivity retained on the filters was determined by liquid scintillation counting. Nonspecific binding (which amounted generally to 10-30%) was evaluated by adding high concentrations of the specific displacers (see table). All the compounds were initially tested at 1x10⁻⁶ M concentration, and in the presence of significant displacing activity, a complete competition curve was generated (down to a concentration of 10⁻¹¹ M). All the samples were run in triplicate.

5HT1A receptors = biological target: T1, 5HT1A receptors (Rattus norvegicus, UniProt P19327); test: [3H]8-OH-DPAT binding (5HT1A receptors), rat hippocampus membranes; conditions: rat hippocampus crude membranes, [3H]8-OH-DPAT 1.0 nM, 25°C 30 min; read-out: Receptor Binding IC50 (nM) 5-HT1a
T1 construct: Rat hippocampi were homogenized; from tissue; host or cells: rat hippocampus membranes
T1 sequence (P19327 1-422): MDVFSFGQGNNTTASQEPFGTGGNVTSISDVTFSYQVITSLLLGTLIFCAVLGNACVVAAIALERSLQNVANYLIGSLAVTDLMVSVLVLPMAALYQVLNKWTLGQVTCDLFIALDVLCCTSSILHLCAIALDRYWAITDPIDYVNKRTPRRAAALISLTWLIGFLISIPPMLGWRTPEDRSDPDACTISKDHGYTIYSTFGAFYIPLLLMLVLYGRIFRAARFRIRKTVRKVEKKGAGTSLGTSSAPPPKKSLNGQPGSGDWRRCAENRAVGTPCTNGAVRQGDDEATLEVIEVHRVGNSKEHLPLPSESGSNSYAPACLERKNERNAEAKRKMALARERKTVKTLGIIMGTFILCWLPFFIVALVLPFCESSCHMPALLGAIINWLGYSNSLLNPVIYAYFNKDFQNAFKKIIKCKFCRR

IC50 (α₁ receptors) [nM] | IC50 (5HT1A receptors) [nM] | Compound | LD50 at 168 h ([1]; ip, intraperitoneal, read-out: Acute Toxicity in Mice LD50 (mg/kg) i.p.) [mg/kg] | LD50 at 168 h ([1]; oral, read-out: Acute Toxicity in Mice LD50 (mg/kg) p.o.) [mg/kg]
– | – | COc1ccccc1N1CCN(CCCC(=O)c2cccc3c(=O)c(C)c(-c4ccccc4)oc23)CC1.CS(=O)(=O)O | > 500 | > 2000
166 | > 1000 | COc1ccccc1N1CC[N+]([O-])(CCCOc2cccc3c(=O)c(C)c(-c4ccccc4)oc23)CC1 [Example 43, 8-{3-[4-(2-methoxyphenyl)-1-oxo-1-piperazinyl]-propoxy}-3-methyl-4-oxo-2-phenyl-4H-1-benzopyran 1.75-hydrate] | – | –
86 | 23 | COc1ccccc1N1CCN(CCCSc2cccc3c(=O)c(C)c(-c4ccccc4)oc23)CC1 [Example 46, 8-{3-[4-(2-methoxyphenyl)-1-piperazinyl]-propylthio}-3-methyl-4-oxo-2-phenyl-4H-1-benzopyran] | – | –
40 | 11 | COc1ccccc1N1CCN(CCCNC(=O)c2cccc3c(=O)c(-c4ccccc4)coc23)CC1 [Example 64, 8-{3-[4-(2-methoxyphenyl)-1-piperazinyl]-propylcarbamoyl}-3-phenyl-4-oxo-4H-1-benzopyran dimethanesulphonate] | – | –
– | 26 | Cc1c(-c2ccccc2)oc2c(C(=O)NCCCNCC3CCc4ccccc4C3=O)cccc2c1=O (stereo not drawn) [Example 65, 8-{3-[(3,4-dihydro-1-oxo-2H-naphthyl)-methylamino]-propylcarbamoyl}-3-methyl-4-oxo-2-phenyl-4H-1-benzopyran methanesulphonate] | – | –
29 | 13 | COc1ccccc1N1CCN(CCCN(OC2CCCCO2)C(=O)c2cccc3c(=O)c(C)c(-c4ccccc4)oc23)CC1 (stereo not drawn) [Example 68, 8-{N-(2-tetrahydropyranyloxy)-3-[4-(2-methoxyphenyl)-1-piperazinyl]-propylcarbamoyl}-3-methyl-4-oxo-2-phenyl-4H-1-benzopyran methanesulphonate hemihydrate] | – | –
108 | 69 | COc1ccccc1N1CCN(CCCN(O)C(=O)c2cccc3c(=O)c(C)c(-c4ccccc4)oc23)CC1 [Example 71, 8-{N-hydroxy-3-[4-(2-methoxyphenyl)-1-piperazinyl]-propylcarbamoyl}-3-methyl-4-oxo-2-phenyl-4H-1-benzopyran methanesulphonate 0.25 H20] | – | –
178 | 482 | COc1ccccc1OCCCNCCCNC(=O)c1cccc2c(=O)c(C)c(-c3ccccc3)oc12 [Example 74, 8-{3-[3-(2-methoxyphenoxy)-propylamino]-propylcarbamoyl}-3-methyl-4-oxo-2-phenyl-4H-1-benzopyran methanesulphonate hemihydrate] | – | –
147 | 15 | CSc1ccccc1OCCNCCCNC(=O)c1cccc2c(=O)c(C)c(-c3ccccc3)oc12 [Example 75, 8-{3-[2-(2-methylthiophenoxy)-ethylamino]-propylcarbamoyl}-3-methyl-4-oxo-2-phenyl-4H-1-benzopyran methanesulphonate] | – | –
18 | 116 | COc1ccccc1N1CCN(CC/C=C/c2cccc3c(=O)c(C)c(-c4ccccc4)oc23)CC1 [Example 78, (E)-8-{4-[4-(2-methoxyphenyl)-1-piperazinyl]-1-butenyl}-3-methyl-4-oxo-2-phenyl-4H-1-benzopyran] | – | –
28 | 162 | COc1ccccc1N1CCN(CCNC(=O)Cc2cccc3c(=O)cc(-c4ccccc4)oc23)CC1 [Example 80, 8-{2-[4-(2-methoxyphenyl)-1-piperazinyl]-ethylcarbamoylmethyl}-4-oxo-2-phenyl-4H-1-benzopyran methanesulphonate hydrate] | – | –
13 | 81 | COc1ccccc1N1CCN(CCCN(C(C)=O)C(=O)c2cccc3c(=O)c(C)c(-c4ccccc4)oc23)CC1 [Example 81, 8-{N-acetyl-3-[4-(2-methoxyphenyl)-1-piperazinyl]-propylcarbamoyl}-3-methyl-4-oxo-2-phenyl-4H-1-benzopyran] | – | –
30 | 5 | COc1ccccc1N1CCN(CCCNC(=S)c2cccc3c(=O)c(C)c(-c4ccccc4)oc23)CC1 [Example 83, 8-{3-[4-(2-methoxyphenyl)-1-piperazinyl]-propylthiocarbamoyl}-3-methyl-4-oxo-2-phenyl-4H-1-benzopyran methanesulphonate] | – | –
5 | 2 | COc1ccccc1N1CCN(CCCCS(=O)(=O)c2cccc3c(=O)c(C)c(-c4ccccc4)oc23)CC1 [Example 84, 8-{4-[4-(2-methoxyphenyl)-1-piperazinyl]-butylsulphonyl}-3-methyl-4-oxo-2-phenyl-4H-1-benzopyran methanesulphonate . ¼ H₂O] | – | –
16 | 14 | COc1ccccc1N1CCN(CCCNC(=O)c2cccc3c(=O)c(CO)c(-c4ccccc4)oc23)CC1 [Example 85, 8-{3-[4-(2-methoxyphenyl)-1-piperazinyl]-propylcarbamoyl}-3-hydroxymethyl-4-oxo-2-phenyl-4H-1-benzopyran. 0.4 ethanol] | – | –
48 | 20 | COc1ccccc1N1CCN(CCCNC(=O)c2cccc3c(=O)cc(-c4ccccc4)oc23)CC1 [Example 86, 8-{3-[4-(2-methoxyphenyl)-1-piperazinyl]-propylcarbamoyl}-4-oxo-2-phenyl-4H-1-benzopyran methanesulphonate . ¼ H₂O] | – | –
216 | 11 | COc1ccccc1N1CCN(CCCNC(=O)c2cccc3c(=O)ccoc23)CC1 [Example 88, 8-{3-[4-(2-methoxyphenyl)-1-piperazinyl]-propylcarbamoyl}-4-oxo-4H-1-benzopyran methanesulphonate . 1.25 H₂O] | – | –
47 | 38 | COc1ccccc1N1CCN(CCCNC(=O)c2cc([N+](=O)[O-])cc3c(=O)c(C)c(-c4ccccc4)oc23)CC1 [Example 93, 8-{3-[4-(2-methoxyphenyl)-1-piperazinyl]-propylcarbamoyl}-3-methyl-6-nitro-4-oxo-2-phenyl-4H-1-benzopyran] | – | –
39 | 66 | COc1ccccc1N1CCN(CCCNC(=O)c2cc(N)cc3c(=O)c(C)c(-c4ccccc4)oc23)CC1 [Example 94, 8-{3-[4-(2-methoxyphenyl)-1-piperazinyl]-propylcarbamoyl}-6-amino-3-methyl-4-oxo-2-phenyl-4H-1-benzopyran] | – | –
103 | 12 | COc1ccccc1N1CCN(CCCNC(=O)c2c(OC)ccc3c(=O)c(C)c(-c4ccccc4)oc23)CC1 [Example 98, 8-{3-[4-(2-methoxyphenyl)-1-piperazinyl]-propylcarbamoyl}-7-methoxy-3-methyl-4-oxo-2-phenyl-4H-1-benzopyran] | – | –
44 | 5 | COc1ccccc1N1CCN(CCCNC(=O)c2cccc3c(=O)c(C)c(-c4ccc(C(F)(F)F)cc4)oc23)CC1 [Example 99, 8-{3-[4-(2-methoxyphenyl)-1-piperazinyl]-propylcarbamoyl}-3-methyl-4-oxo-2-(4-trifluoromethylphenyl)-4H-1-benzopyran methanesulphonate sesquihydrate] | – | –
56 | 18 | COc1ccccc1N1CCN(CCCNC(=O)c2cccc3c(=O)c(C)c(C)oc23)CC1 [Example 102, 8-{3-[4-(2-methoxyphenyl)-1-piperazinyl]-propylcarbamoyl}-2,3-dimethyl-4-oxo-4H-1-benzopyran] | – | –
9 | 15 | COc1ccccc1N1CCN(CCCNC(=O)c2cccc3c(=O)c(C)c(C4CCCCC4)oc23)CC1 [Example 104, 8-{3-[4-(2-methoxyphenyl)-1-piperazinyl]-propylcarbamoyl}-2-cyclohexyl-3-methyl-4-oxo-4H-1-benzopyran] | – | –
37 | 16 | COc1ccccc1N1CCN(CCCNC(=O)c2cccc3c(=O)cc(-c4ccccc4)sc23)CC1 [Example 107, 8-{3-[4-(2-methoxyphenyl)-1-piperazinyl]-propylcarbamoyl}-4-oxo-2-phenyl-4H-1-benzothiopyran] | – | –
26 | 15 | COc1ccc(-c2oc3c(C(=O)NCCCN4CCN(c5ccccc5OC)CC4)cccc3c(=O)c2C)cc1 [Example 110, 8-{3-[4-(2-methoxyphenyl)-1-piperazinyl]-propylcarbamoyl}-2-(4-methoxyphenyl)-3-methyl-4-oxo-4H-1-benzopyran] | – | –

Compound | IC50 (α₁ receptors) [nM] | IC50 (5HT1A receptors) [nM] | LD50 at 168 h ([1]; ip, intraperitoneal, read-out: Acute Toxicity in Mice LD50 (mg/kg) i.p.) [mg/kg] | LD50 at 168 h ([1]; oral, read-out: Acute Toxicity in Mice LD50 (mg/kg) p.o.) [mg/kg]
COc1ccccc1N1CCN(CCCC(=O)c2cccc3c(=O)c(C)c(-c4ccccc4)oc23)CC1.CS(=O)(=O)O [methanesulphonate] | 22 | 84 | – | –

Reference: patent EP0558245A1, “Heterobicyclic compounds as antagogists of alpha-1 adrenergic and SHT1A receptors” (priority 1992, dated 1993)
